Consider two compounds from US7022689B2, “5-amidino-n-(2-aminophenethyl)-n-hydroxy-benzenesulffonamide derivative, medical composition containing the same, pharmaceutical use thereof and intermediate therefor” (Kissei Pharmaceutical Co., Ltd., priority 2001, dated 2006).

The target in assay [1] is T1, human activated blood coagulation factor X (Homo sapiens, UniProt P00742).
T1 construct: purchased Calbiochem
The experiment in a line: Measurement of inhibitory activity for activated blood coagulation factor X (S-2222 chromogenic substrate). In kind it is biochemical. As to conditions: substrate S-2222, tris-NaCl buffer pH 8.4, 10 minutes at 37° C., absorbance 405 nm.
Description: Measurement of Inhibitory Activity for Activated Blood Coagulation Factor X 2.5 μL of a dimethylsulfoxide solution of a test compound, 187.5 μL of 100 mM tris-200 mM NaCl buffer (pH 8.4) and 50 μL of 1 mM S-2222 (Daiichi Pure Chemicals) aqueous solution were poured into 96 well microplate. Then 10 μL of 0.6 U/mL human activated blood coagulation factor X (Calbiochem) in gelatin-glycine buffer was added and the mixture was incubated for 10 minutes at 37° C. The reaction was terminated with the addition of 50 μL of 60% acetic acid and absorbance (405 nm) was measured by a microplate reader (SPECTRAmax250, Molecular Devices). The group with 2.5 μL of the dimethylsulfoxide solution instead of the test compound solution was defined as the control, and the group with 10 μL of the gelatin-glycine buffer solution instead of human activated blood coagulation factor X was defined as the blank.

The next assay concerns the target T2, human thrombin (Homo sapiens, UniProt P00734).
T2 construct: human thrombin (Sigma Chemical Company); purchased Sigma Chemical Company
The experiment in a line: Measurement of inhibitory activity for thrombin (S-2238 chromogenic substrate). In kind it is biochemical. As to conditions: substrate S-2238, tris-NaCl buffer pH 8.4, 10 minutes at 37° C., absorbance 405 nm. How it is done:
Measurement of Inhibitory Activity for Thrombin
2.5 μL of a dimethylsulfoxide solution of a test compound, 187.5 μL of 100 mM tris-200 mM NaCl buffer (pH 8.4) and 50 μL of 1 mM S-2238 (Daiichi Pure Chemicals) aqueous solution were poured into 96 well microplate. Then 10 μL of 2.0 U/mL human thrombin (Sigma Chemical Company) in gelatin-glycine buffer was added and the mixture was incubated for 10 minutes at 37° C. The reaction was terminated with the addition of 50 μL of 60% acetic acid and absorbance (405 nm) was measured by a microplate reader (SPECTRAmax250, Molecular Devices).
The group with 2.5 μL of the dimethylsulfoxide solution instead of the test compound solution was defined as the control, and the group with 10 μL of the gelatin-glycine buffer solution instead of human thrombin was defined as the blank. The concentration of a test compound that inhibited the absorbance of control by 50% (IC50) was obtained, and this value was used as the index of inhibitory activity for thrombin.

Structures can show the parent of a compound that is named as a salt.

T1 sequence (P00742 235-488 limits assumed): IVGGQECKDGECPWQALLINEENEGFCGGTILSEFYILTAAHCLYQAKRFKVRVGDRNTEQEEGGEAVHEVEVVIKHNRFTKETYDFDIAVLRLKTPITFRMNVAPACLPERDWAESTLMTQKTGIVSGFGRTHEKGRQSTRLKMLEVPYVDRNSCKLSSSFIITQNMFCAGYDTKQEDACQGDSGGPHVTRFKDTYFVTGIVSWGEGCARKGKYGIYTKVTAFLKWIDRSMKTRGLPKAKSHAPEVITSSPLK
T1 sequence (P00742 41-179 partner limits assumed): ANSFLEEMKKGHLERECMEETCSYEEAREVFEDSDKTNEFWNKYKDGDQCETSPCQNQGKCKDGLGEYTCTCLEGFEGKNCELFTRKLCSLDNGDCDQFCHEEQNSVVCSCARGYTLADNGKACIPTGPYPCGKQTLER

In general, IC50 refers to the concentration at which inhibition is half-maximal. A high value points to lower potency. Consider `CS(=O)(=O)c1ccccc1-c1ccc(CCNS(=O)(=O)c2cc(C(=N)N)ccc2O)c(NCC(=O)O)c1` [Compound 17, [[4-[2-(5-Carbamimidoyl-2-hydroxybenzenesulfonylamino)ethyl]-2′-methanesulfonylbiphenyl-3-yl]amino]acetic aid hydrochloride], for which the results for the IC50 (in assay [1]; against human thrombin) were 7.1 nM and 37000 nM, respectively.
For `CC(C)c1ccc(CCNS(=O)(=O)c2cc(C(=N)N)ccc2O)c(NCC(=O)O)c1` [Compound 18, [[2-[2-(5-Carbamimidoyl-2-hydroxybenzenesulfonylamino)ethyl]-5-isopropylphenyl]amino]acetic acid] the same measures were 77 nM and > 100000 nM.
